Measured values as given in publication PMC11374673, “Discovery of isoquinoline sulfonamides as allosteric gyrase inhibitors with activity against fluoroquinolone-resistant bacteria” (Nature Chemistry, 2024).
Converted amounts (≈) assume the structure as drawn. Like-named read-outs stand apart in the source and are kept apart here.

Legend:
[1] = system: E. coli W3110; assay: MIC by broth microdilution; format: cell-based, Escherichia coli; settings: for MIC: broth microdilution, read-out: MIC E. coli W3110; for antimicrobial activity: relative to parent compound
Protocol: (§1) MIC was determined by broth microdilution. Single-colony cultures were grown to exponential phase (OD600 of 0.5) aerobically at 37 °C. In case of strains from the Keio collection, 50 µg ml^−1 kanamycin was supplemented to the media to ascertain a homogeneous population. The bacterial suspensions were diluted 100-fold in CAMHB and 50 µl was added to a twofold serial dilution series of test compounds (50 µl per well) in polypropylene 96-well microtitre plates to reach a volume of 100 µl. The plates were sealed with breathable membranes and incubated overnight at 37 °C with constant shaking (600 r.p.m.).

[2] = system: K. pneumoniae ATCC 29665; assay: MIC by broth microdilution; format: cell-based, Klebsiella pneumoniae; settings: read-out: MIC K. pneumoniae ATCC 29665
Protocol: as §1

[3] = Klebsiella pneumoniae, ATCC29665, broth microdilution

Compound | MIC ([1]; Escherichia coli, W3110, WT) [µM] | MIC ([1]; WT) [µM] | MIC [2, 3] [µM] | MIC ([2]; broth microdilution) [µM] | antimicrobial activity [1]
O=C(NCCNS(=O)(=O)c1cccc2cnccc12)c1ccc(-c2cccnc2)cc1 [Compound 93] | > 50 | >50 | > 50 | >50 | abolished all activity
O=S(=O)(NCCNCc1ccc(-c2cccnc2)c(Cl)c1)c1cccc2cnccc12 [Compound 83] | > 50 | >50 | > 50 | >50 | 
O=S(=O)(NCCNCc1ccc(-c2ccc(F)nc2)c(Cl)c1)c1cccc2cnccc12 [Compound 85] | > 50 | >50 | > 50 | >50 | 
O=S(=O)(NCCNCc1ccc(-c2cccnc2)cc1)c1ccccc1 [Compound 48] | > 50 | >50 | > 50 | >50 | lost all activity
Cc1cccc(-c2ccc(CNCCNS(=O)(=O)c3cccc4cnccc34)cc2)c1 [Compound 67] | > 50 | >50 | > 50 | >50 | 
Nc1cc2c(S(=O)(=O)NCCNCc3ccc(-c4cccnc4)cc3)cccc2cn1 [Compound 55] | > 50 | >50 | > 50 | >50 | 

These reach a lower MIC ([1]; Escherichia coli, W3110, WT). Values come first.

MIC ([1]; Escherichia coli, W3110, WT) [µM] | MIC ([1]; WT) [µM] | MIC [2, 3] [µM] | MIC ([2]; broth microdilution) [µM] | Compound | antimicrobial activity [1]
25 (≈ 11.1 µg/mL) |  | 50 (≈ 22.1 µg/mL) |  | N#Cc1ccccc1-c1ccc(CNCCNS(=O)(=O)c2cccc3cnccc23)cc1 [Compound 72] | 
25 (≈ 10.4 µg/mL) |  | > 50 | 50 (≈ 20.9 µg/mL) | O=S(=O)(NCCNCc1ccc(-c2cccnc2)cc1)c1cccc2ccccc12 [Compound 47] | fourfold reduced activity
25 (≈ 10.9 µg/mL) |  | 50 (≈ 21.8 µg/mL) |  | O=S(=O)(NCCNCc1ccc(-c2cccnc2)c(F)c1)c1cccc2cnccc12 [Compound 87] | 
